The record followed here is ChEMBL document CHEMBL1123040, “Molecular mechanism of action of 5,6-dihydroxytryptamine. Synthesis and biological evaluation of 4-methyl-, 7-methyl-, and 4,7-dimethyl-5,6-dihydroxytryptamines” (J Med Chem, 1985).

As a reminder, the IC50 is the point on the concentration scale where inhibition reaches its midpoint.

For test [1], the target named is T1, Sodium-dependent serotonin transporter (Rattus norvegicus, UniProt P31652). In words: Inhibitory activity against incorporation of [3H]5-HT transporter uptake into the differentiated N-2a cells. Type of test: cell-based.
Test [2] has as its target T1, Sodium-dependent serotonin transporter. In words: Inhibitory activity against incorporation of Serotonin transporter uptake into the differentiated N-2a cells. Type of test: cell-based.

T1 sequence (P31652 whole entry): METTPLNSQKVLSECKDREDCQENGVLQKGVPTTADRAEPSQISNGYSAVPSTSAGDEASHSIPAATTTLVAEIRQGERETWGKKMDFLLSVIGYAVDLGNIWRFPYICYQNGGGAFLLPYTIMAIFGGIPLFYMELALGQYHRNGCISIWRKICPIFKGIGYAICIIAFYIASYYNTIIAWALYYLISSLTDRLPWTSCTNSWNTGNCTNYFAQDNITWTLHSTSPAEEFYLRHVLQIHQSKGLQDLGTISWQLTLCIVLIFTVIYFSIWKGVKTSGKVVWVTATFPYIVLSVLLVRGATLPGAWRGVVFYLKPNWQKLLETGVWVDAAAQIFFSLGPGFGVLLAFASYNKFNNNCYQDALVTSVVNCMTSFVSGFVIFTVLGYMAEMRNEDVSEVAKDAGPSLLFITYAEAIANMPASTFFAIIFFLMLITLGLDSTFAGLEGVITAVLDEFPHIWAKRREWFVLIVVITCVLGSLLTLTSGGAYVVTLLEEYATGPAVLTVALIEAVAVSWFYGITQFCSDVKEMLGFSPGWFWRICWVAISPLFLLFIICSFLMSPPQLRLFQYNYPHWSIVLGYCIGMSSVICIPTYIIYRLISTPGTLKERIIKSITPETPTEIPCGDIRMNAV

`Cc1c(O)c(O)cc2c(CCN)c[nH]c12` returned a concentration for half-maximal inhibition (IC50) in test [1] of 51.8 µM. The compound `Cc1c(O)c(O)c(C)c2c(CCN)c[nH]c12` had an IC50 in test [1] of 19.7 µM.

In test [1], `Cc1c(O)c(O)cc2[nH]cc(CCN)c12` displayed an IC50 of 23 µM. Compound `NCCc1c[nH]c2cc(O)c(O)cc12` yielded an IC50 in test [2] of 6 µM. This lies in the single-digit micromolar range.
